This passage reports Ki and EC50 results from US7888329B2, “Substituted aryl piperidinylalkynyladenosines as A2AR agonists” (PGxHealth, LLC, priority 2006, dated 2011).

Like-named read-outs stand apart in the source and are kept apart here. Where only a bound is given, the exact number is not on record here.

Experiment [1] deals with T1, human A1 AR (Homo sapiens, UniProt P30542).
T1 construct: expressed in transfected cells; membranes
T1 sequence (P30542 1-326): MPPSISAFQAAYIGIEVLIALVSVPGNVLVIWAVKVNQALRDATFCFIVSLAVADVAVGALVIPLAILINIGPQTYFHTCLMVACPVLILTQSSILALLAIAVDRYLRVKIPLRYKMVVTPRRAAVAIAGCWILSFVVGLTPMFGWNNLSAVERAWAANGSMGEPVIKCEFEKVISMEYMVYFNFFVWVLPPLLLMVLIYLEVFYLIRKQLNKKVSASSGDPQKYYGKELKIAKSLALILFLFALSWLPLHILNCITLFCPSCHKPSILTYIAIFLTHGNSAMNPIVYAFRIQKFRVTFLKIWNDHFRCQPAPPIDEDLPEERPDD
The experiment in a line: Radioligand competition binding with 125I-ABA, membranes of CHO K1 cells stably expressing the receptor. The note with it: Ki derived from IC50, class symbols.

Experiment [2] deals with T2, recombinant human A2A receptors (Homo sapiens, UniProt P29274).
T2 construct: expressed in transfected cells; host or cells: Sf9 insect cells infected with virus; membranes
T2 sequence (P29274 whole entry): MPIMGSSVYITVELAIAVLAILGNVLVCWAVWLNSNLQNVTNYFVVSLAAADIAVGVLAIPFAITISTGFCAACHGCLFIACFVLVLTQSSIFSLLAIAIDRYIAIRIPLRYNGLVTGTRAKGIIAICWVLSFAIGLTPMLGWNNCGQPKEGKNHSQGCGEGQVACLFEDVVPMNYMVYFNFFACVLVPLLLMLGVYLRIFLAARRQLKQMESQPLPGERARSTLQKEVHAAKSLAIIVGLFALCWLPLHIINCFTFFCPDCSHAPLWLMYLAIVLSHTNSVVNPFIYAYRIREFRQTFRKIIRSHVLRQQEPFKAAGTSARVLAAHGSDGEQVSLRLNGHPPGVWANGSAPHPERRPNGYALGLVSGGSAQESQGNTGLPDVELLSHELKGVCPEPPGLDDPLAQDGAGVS
In words: Radioligand competition binding with 125I-APE or 125I-ZM241385, Sf9 cell membranes. The conditions noted are these: 125I-APE or 125I-ZM241385, Sf9 membranes; class symbols. An outline of the steps: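 Membranes (5 μg for A2A; 25 μg for A1) incubated with radioligand at room temperature, 3 h for agonists or 2 h for antagonists, in HE buffer with 1 U/mL adenosine deaminase and 5 mM MgCl2, ± 50 μM GTPγS. Assays ended by filtration; nonspecific binding defined with 50 μM NECA.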
In general terms: Displacement assays read how much labelled ligand stays bound in the presence of the test substance.

Experiment [3] concerns the target T3, human A3 AR (Homo sapiens, UniProt P0DMS8).
T3 construct: expressed in transfected cells; membranes
T3 sequence (P0DMS8 1-318): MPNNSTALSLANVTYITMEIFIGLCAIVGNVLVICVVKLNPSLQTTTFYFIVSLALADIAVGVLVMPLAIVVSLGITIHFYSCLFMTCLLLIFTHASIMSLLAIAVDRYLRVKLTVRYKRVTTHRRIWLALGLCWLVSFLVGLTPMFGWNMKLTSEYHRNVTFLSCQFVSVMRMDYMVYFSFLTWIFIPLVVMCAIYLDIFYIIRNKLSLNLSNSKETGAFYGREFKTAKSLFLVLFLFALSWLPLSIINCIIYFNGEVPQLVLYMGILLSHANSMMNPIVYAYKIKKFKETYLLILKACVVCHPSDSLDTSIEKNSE
The experiment in a line: Radioligand competition binding with 125I-ABA, membranes of HEK 293 cells stably expressing the receptor. The conditions noted are these: Ki derived from IC50, class symbols. An outline of the steps:
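Triplicate binding with 25 μg membrane protein and 0.5-1 nM agonist radioligand in HE buffer with 1 U/mL adenosine deaminase and 5 mM MgCl2, ±50 μM GTPγS, 3 h at room temperature, then filtration. Nonspecific binding with 50 μM NECA; Ki from IC50 corrected for radioligand and competitor depletion.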

Experiment [4] concerns Purified human neutrophils. In words: Luminol enhanced chemiluminescence (neutrophil oxidative activity), fMLP stimulated. Type of experiment: cell-based.
Setting [5] is: Homo sapiens, Neutrophil, read-out: Functional.
Setting [6] is: Homo sapiens, Neutrophil, read-out: Functional (nM).

Usually Ki stands for a dissociation constant, usually derived from enzyme kinetics or from competition with a known ligand. In the case of `Nc1nc(C#CCC2CCN(C(=O)Oc3ccc(Cl)cc3)CC2)nc2c1ncn2[C@@H]1O[C@H](C(=O)NC2CC2)C(O)[C@@H]1O` (stereo partly drawn) [Compound 17, N-Cyclopropyl 2-{3-[1-(4-chlorophenoxycarbonyl)-4-piperidinyl]-1-propyn-1-yl}adenosine-5′-uronamide], the Ki in experiment [1] is under 100 nM; in experiment [2], under 1 nM; in experiment [3], under 100 nM. Further, in experiment [4] (setting [5]), the EC50 is under 1 nM.

For `Nc1nc(C#CCC2CCN(C(=O)Oc3ccc(F)c(F)c3)CC2)nc2c1ncn2[C@@H]1O[C@H](CO)[C@@H](O)[C@H]1O` [Compound 54, 2-{3-[1-((3,4-Difluoro)phenoxycarbanoyl)piperidin-4-yl]propyn-1-yl}adenosine], the Ki was under 100 nM in experiment [1], under 1 nM in experiment [2] and under 100 nM in experiment [3]. The EC50 in experiment [4] (setting [5]) is under 10 nM.

Take `Cc1ccc(OC(=O)N2CCC(CC#Cc3nc(N)c4ncn([C@@H]5O[C@H](CO)[C@@H](O)[C@H]5O)c4n3)CC2)cc1` [Compound 29, 2-{3-[1-((4-Methyl)phenoxycarbanoyl)piperidin-4-yl]propyn-1-yl}adenosine]: the Ki in experiment [1] is under 100 nM; in experiment [2], under 1 nM; in experiment [3], under 100 nM. Moreover, in experiment [4] (setting [5]), the EC50 was under 10 nM.

As for “N-Cyclopropyl 2-{3-[1-((4-amino)benzyloxycarbanoyl)-4-piperidinyl]propyn-1-yl}adenosine-5′-uronamide [Compound 48]”, the Ki in experiment [1] is over 100 nM; in experiment [2], under 10 nM; in experiment [3], over 100 nM. Further, in experiment [4] (EC50 of peak chemiluminescence, human PMN, rolipram 100 nM, fMLP, three donors, class symbols, read-out: Functional), the EC50 is under 10 nM.

Turning to `Nc1nc(C#CCC2CCN(C(=O)Oc3cccc(C(F)(F)F)c3)CC2)nc2c1ncn2[C@@H]1O[C@H](CO)C(O)[C@@H]1O` (stereo partly drawn) [Compound 6, 2-{3-[1-((3-Trifluoromethyl)phenoxycarbonyl)piperidin-4-yl]propyn-1-yl}adenosine], the Ki in experiment [1] was under 100 nM; in experiment [2] it was under 1 nM; in experiment [3], under 10 nM. Besides, the EC50 in experiment [4] (setting [5]) is under 10 nM.

As to `Nc1nc(C#CCC2CCN(C(=O)OCc3ccc([N+](=O)[O-])cc3)CC2)nc2c1ncn2[C@@H]1O[C@H](CO)[C@@H](O)[C@H]1O` [Compound 30, 2-{3-[1-((4-Nitro)benzyloxycarbanoyl)piperidin-4-yl]propyn-1-yl}adenosine], the results for the Ki in experiment [1], in experiment [2] and in experiment [3] were under 100 nM, under 10 nM and under 100 nM, respectively. In addition, the EC50 in experiment [4] (setting [5]) is under 10 nM.

Consider `Nc1nc(C#CCC2CCN(C(=O)Oc3ccc(Br)cc3Br)CC2)nc2c1ncn2[C@@H]1O[C@H](C(=O)NC2CC2)C(O)[C@@H]1O` (stereo partly drawn) [Compound 57, N-Cyclopropyl 2-{3-[1-(2,4-bromophenoxycarbonyl)-4-piperidinyl]-1-propyn-1-yl}adenosine-5′-uronamide], for which the Ki in experiment [1] is under 100 nM; in experiment [2], under 1 nM; in experiment [3], under 100 nM. In experiment [4] (setting [5]), the EC50 was under 10 nM.

With `Nc1nc(C#CCC2CCN(C(=O)Oc3ccc([N+](=O)[O-])cc3)CC2)nc2c1ncn2[C@@H]1O[C@H](CO)[C@@H](O)[C@H]1O` [Compound 12, 2-{3-[1-((4-Nitrophenoxy)carbonyl)piperidin-4-yl]propyn-1-yl}adenosine], the Ki is under 100 nM in experiment [1], under 1 nM in experiment [2] and under 100 nM in experiment [3]. Moreover, the EC50 in experiment [4] (setting [5]) is under 1 nM.

`CCNC(=O)[C@H]1O[C@@H](n2cnc3c(N)nc(C#CCC4CCN(C(=O)Oc5ccc(Cl)c(Cl)c5)CC4)nc32)[C@@H](O)C1O` (stereo partly drawn) [Compound 49, N-Ethyl 2-{3-[1-(3,4-dichlorophenoxycarbonyl)-4-piperidinyl]-1-propyn-1-yl}adenosine-5′-uronamide]: the figures for the Ki in experiment [1], in experiment [2] and in experiment [3] were under 100 nM, under 1 nM and under 10 nM, respectively. In experiment [4] (setting [5]), the EC50 was under 1 nM.

Take `Nc1nc(C#CCC2CCN(C(=O)OCCOCc3ccccc3)CC2)nc2c1ncn2[C@@H]1O[C@H](C(=O)NC2CC2)C(O)[C@@H]1O` (stereo partly drawn) [Compound 5, N-Cyclopropyl 2-{3-[1-(2-(benzyloxy)ethoxycarbonoyl)-4-piperidinyl]-1-propyn-1-yl}adenosine-5′-uronamide]: the Ki is under 100 nM in experiment [1], under 1 nM in experiment [2] and under 100 nM in experiment [3]. Moreover, the EC50 in experiment [4] (setting [5]) is under 10 nM.

Turning to `Nc1nc(C#CCC2CCN(C(=O)Oc3ccc(F)cc3)CC2)nc2c1ncn2[C@@H]1O[C@H](CO)[C@@H](O)[C@H]1O` [Compound 11, 2-{3-[1-((4-Fluorophenoxy)carbonyl)piperidin-4-yl]propyn-1-yl}adenosine], the Ki in experiment [1] was under 100 nM; in experiment [2], under 1 nM; in experiment [3], under 100 nM. For the same molecule, the EC50 in experiment [4] (setting [5]) is under 10 nM.

In the case of `Cc1ccc(OC(=O)N2CCC(CCCc3nc(N)c4ncn([C@@H]5O[C@H](C(=O)NC6CC6)C(O)[C@@H]5O)c4n3)CC2)cc1` (stereo partly drawn) [Compound 39], the results for the inhibition constant (Ki) in experiment [1], in experiment [2] and in experiment [3] were over 100 nM, under 100 nM and over 100 nM, respectively. Besides, the EC50 in experiment [4] (setting [6]) is under 100 nM.

Consider `Nc1nc(C#CCC2CCN(C(=O)Oc3ccc(C(=O)O)cc3)CC2)nc2c1ncn2[C@@H]1O[C@H](C(=O)NC2CC2)C(O)[C@@H]1O` (stereo partly drawn) [Compound 14, N-Cyclopropyl 2-{3-[1-(4-carboxyphenoxycarbonyl)-4-piperidinyl]-1-propyn-1-yl}adenosine-5′-uronamide], for which the Ki in experiment [1] was over 100 nM; in experiment [2], under 10 nM; in experiment [3], over 100 nM. The EC50 in experiment [4] (setting [5]) is under 100 nM.

On to `Nc1nc(C#CCC2CCN(C(=O)Oc3ccc(F)c(F)c3)CC2)nc2c1ncn2[C@@H]1O[C@H](C(=O)NC2CC2)C(O)[C@@H]1O` (stereo partly drawn) [Compound 52, N-Cyclopropyl 2-{3-[1-(3,4-fluorophenoxycarbonyl)-4-piperidinyl]-1-propyn-1-yl}adenosine-5′-uronamide], for which the Ki in experiment [1] was under 100 nM; in experiment [2], under 1 nM; in experiment [3], under 100 nM. Besides, the EC50 in experiment [4] (setting [5]) was under 1 nM.

As to `Nc1nc(C#CCC2CCN(C(=O)Nc3ccc(F)cc3)CC2)nc2c1ncn2[C@@H]1O[C@H](CO)C(O)[C@@H]1O` (stereo partly drawn) [Compound 44], the Ki is under 100 nM in experiment [1], under 10 nM in experiment [2] and under 100 nM in experiment [3]. In addition, in experiment [4] (setting [5]), the EC50 is over 100 nM.

Turning to `COc1ccc(OC(=O)N2CCC(CC#Cc3nc(N)c4ncn([C@@H]5O[C@H](CO)[C@@H](O)[C@H]5O)c4n3)CC2)cc1` [Compound 28, 2-{3-[1-((4-Methoxy)phenoxycarbanoyl)piperidin-4-yl]propyn-1-yl}adenosine], the Ki in experiment [1] is under 100 nM; in experiment [2], under 1 nM; in experiment [3] it was under 100 nM. The EC50 in experiment [4] (setting [5]) is under 10 nM.

As to `Nc1nc(CCCC2CCN(C(=O)Oc3ccccc3)CC2)nc2c1ncn2[C@@H]1O[C@H](C(=O)NC2CC2)C(O)[C@@H]1O` (stereo partly drawn) [Compound 38], the results for the Ki in experiment [1], in experiment [2] and in experiment [3] were over 100 nM, under 100 nM and over 100 nM, respectively. The EC50 in experiment [4] (setting [6]) was under 100 nM.

As to `Nc1nc(C#CCC2CCN(C(=O)Nc3cccc(Cl)c3)CC2)nc2c1ncn2[C@@H]1O[C@H](C(=O)NC2CC2)C(O)[C@@H]1O` (stereo partly drawn) [Compound 43, N-Cyclopropyl 2-{3-[1-(3-chlorophenyloxycarboxymidyl)-4-piperidinyl]-1-propyn-1-yl}adenosine-5′-uronamide], the results for the Ki in experiment [1], in experiment [2] and in experiment [3] were under 100 nM, under 10 nM and over 100 nM, respectively. Further, the EC50 in experiment [4] (setting [5]) was under 100 nM.
